Source: PubChem BioAssay (NCI)
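Interpolation was linear, between the two tested concentrations surrounding the appropriate level; five concentrations were tested over 48 hours in 96-well plates. At the TGI there is no net growth.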

Key:
Assay in all cases: growth of human tumour cells (NCI), 48 h
A498 renal = tested on: A498 renal
KM12 colon = tested on: KM12 colon
SK-MEL-28 melanoma = tested on: SK-MEL-28 melanoma
SNB-19 CNS = tested on: SNB-19 CNS
NCI-H460 lung = tested on: NCI-H460 lung
U251 CNS = tested on: U251 CNS
M14 melanoma = tested on: M14 melanoma
NCI/ADR-RES ovarian = tested on: NCI/ADR-RES ovarian
DMS 273 small cell lung = tested on: DMS 273 small cell lung
SW-620 colon = tested on: SW-620 colon
IGROV1 ovarian = tested on: IGROV1 ovarian
HT29 colon = tested on: HT29 colon
OVCAR-8 ovarian = tested on: OVCAR-8 ovarian
SF-539 CNS = tested on: SF-539 CNS
RXF 393 renal = tested on: RXF 393 renal
CCRF-CEM leukemia = tested on: CCRF-CEM leukemia
COLO 205 colon = tested on: COLO 205 colon
SK-OV-3 ovarian = tested on: SK-OV-3 ovarian
MCF7 breast = tested on: MCF7 breast
T-47D breast = tested on: T-47D breast

| SMILES | TGI (A498 renal) | TGI (KM12 colon) | TGI (SK-MEL-28 melanoma) | TGI (SNB-19 CNS) | TGI (NCI-H460 lung) | TGI (U251 CNS) | TGI (M14 melanoma) | TGI (NCI/ADR-RES ovarian) | TGI (DMS 273 small cell lung) | TGI (SW-620 colon) | TGI (IGROV1 ovarian) | TGI (HT29 colon) | TGI (OVCAR-8 ovarian) | TGI (SF-539 CNS) | TGI (RXF 393 renal) | TGI (CCRF-CEM leukemia) | TGI (COLO 205 colon) | TGI (SK-OV-3 ovarian) | TGI (MCF7 breast) | TGI (T-47D breast) |
| --- | --- | --- | --- | --- | --- | --- | --- | --- | --- | --- | --- | --- | --- | --- | --- | --- | --- | --- | --- | --- |
| O=C1c2ccsc2C(=O)c2sc(CO)cc21 | 0.792 µM | 3.08 µM | 0.0614 µM | 0.218 µM | 2.17 µM | 0.421 µM | < 0.0154 µM | 0.396 µM | 0.115 µM | 0.164 µM | 1.36 µM | 0.444 µM | 0.38 µM | 0.1 µM | 1.9 µM | 1.35 µM | 1.53 µM | 2.97 µM | – | – |
| Cc1cc(N(CCC#N)CCC#N)ccc1/C=C(\NC(=O)/C=C/c1ccccc1)C(N)=O | > 100 µM | > 100 µM | > 100 µM | > 100 µM | > 100 µM | > 100 µM | > 100 µM | – | > 100 µM | > 100 µM | > 100 µM | > 100 µM | > 100 µM | > 100 µM | 21 µM | > 100 µM | > 100 µM | > 100 µM | – | – |
| CCOC(=O)CC(C)C1(C(=O)OCC)CCCCC1=O (centres undefined) | > 100 µM | > 100 µM | > 100 µM | > 100 µM | > 100 µM | > 100 µM | > 100 µM | – | 32.5 µM | – | > 100 µM | > 100 µM | > 100 µM | > 100 µM | > 100 µM | > 100 µM | > 100 µM | > 100 µM | – | – |
| Nc1nc([O-])c2c(n1)[n+](C1OC(CO)C(O)C1O)cn2CCO (centres undefined) | > 100 µM | > 100 µM | > 100 µM | – | > 100 µM | > 100 µM | > 100 µM | – | > 100 µM | > 100 µM | > 100 µM | > 100 µM | > 100 µM | > 100 µM | > 100 µM | > 100 µM | > 100 µM | > 100 µM | – | – |
| CN=C(SC)N(C)c1nc(=[N+](C)C)ss1 | > 100 µM | > 100 µM | > 100 µM | > 100 µM | – | > 100 µM | > 100 µM | – | > 100 µM | > 100 µM | > 100 µM | > 100 µM | > 100 µM | – | > 100 µM | > 100 µM | – | > 100 µM | – | – |
| Cc1cc(NS(=O)(=O)c2ccc(Nc3c4ccccc4nc4c(C(=O)N5CCN(CCO)CC5)cccc34)cc2)no1 | > 100 µM | > 100 µM | > 100 µM | > 100 µM | > 100 µM | > 100 µM | > 100 µM | – | > 100 µM | > 100 µM | > 100 µM | > 100 µM | > 100 µM | > 100 µM | > 100 µM | > 100 µM | > 100 µM | > 100 µM | – | – |
| C[Si](C)(C)OC1CC(=O)OC1n1cc(F)c(=O)[nH]c1=O (centres undefined) | > 100 µM | > 100 µM | > 100 µM | > 100 µM | > 100 µM | > 100 µM | > 100 µM | – | > 100 µM | > 56 µM | > 100 µM | > 100 µM | > 100 µM | > 100 µM | 98.4 µM | > 96.4 µM | > 100 µM | > 100 µM | – | – |
| O=C(N/N=C\C=C\c1ccc([N+](=O)[O-])o1)C(=O)N/N=C\C=C\c1ccc([N+](=O)[O-])o1 | > 100 µM | > 100 µM | > 100 µM | > 100 µM | > 100 µM | > 100 µM | > 100 µM | 70.1 µM | – | 58.8 µM | > 100 µM | > 100 µM | 59.1 µM | > 100 µM | > 100 µM | 3.55 µM | > 100 µM | > 100 µM | > 100 µM | > 100 µM |
| O=C(c1ccco1)N(C(=S)OCCOc1ccccc1)c1ccccc1 | 33.1 µM | 46.2 µM | 40.3 µM | 59.7 µM | 58.6 µM | 30.2 µM | 37.3 µM | 58.6 µM | – | 41.8 µM | 36.9 µM | 42.1 µM | 38.2 µM | 39 µM | 28.2 µM | 46.5 µM | 37.5 µM | 55.3 µM | 42.8 µM | 76.2 µM |
| O=C(CC(=O)n1nc(-c2ccccc2)c(N=Nc2ccc(Cl)cc2)c1-c1ccccc1)Nc1ccc(Cl)cc1 | > 100 µM | > 100 µM | > 100 µM | > 100 µM | > 59.4 µM | > 100 µM | > 100 µM | – | > 100 µM | > 62.6 µM | > 100 µM | > 59.7 µM | > 100 µM | > 100 µM | – | > 62.8 µM | > 63.9 µM | > 100 µM | – | – |
